Source: patent publication US20130012546A1 (priority 2009, published 2013)

Columns and labels:
[1] = tested on: Phytophthora infestans; format: in vivo; conditions: tomato plants, preventive spray, 100 ppm of active ingredient, evaluated 7 days after inoculation
[2] = logP(HCOOH) by HPLC; format: physicochemical; conditions: HPLC on reversed phase columns
[3] = pH 2.7, 0.1% formic acid in water / acetonitrile, linear gradient 10% to 95% acetonitrile, EEC directive 79/831 Annex V.A8

CON=C(C(=O)Nc1cccc(CON=C(c2ccccc2)c2nnnn2C)n1)c1ccc(Cl)cc1Cl [Example 1]
Efficacy % [1]: 95% | log p [2, 3]: 4.7

CON=C(C(=O)Nc1cccc(CON=C(c2ccccc2)c2nnnn2C)n1)c1ccccc1Cl [Example 2]
Efficacy % [1]: 98% | log p [2, 3]: 4.13

CON=C(C(=O)Nc1cccc(CON=C(c2ccccc2)c2nnnn2C)n1)c1ccc(Cl)cc1 [Example 3]
Efficacy % [1]: 75% | log p [2, 3]: 4.51

C#CCOCC(=O)Nc1cccc(CON=C(c2ccccc2)c2nnnn2C)n1 [Example 4]
Efficacy % [1]: 85% | log p [2, 3]: 2.8

C=CCCCOCC(=O)Nc1cccc(CON=C(c2ccccc2)c2nnnn2C)n1 [Example 5]
Efficacy % [1]: 95% | log p [2, 3]: 3.78

CON=C(C(=O)Nc1nc(CON=C(c2ccccc2)c2nnnn2C)cs1)c1ccc(Cl)cc1 [Example 7]
Efficacy % [1]: 95% | log p [2, 3]: 4.27

CON=C(C(=O)Nc1nc(CON=C(c2ccccc2)c2nnnn2C)cs1)c1ccc(Br)cc1 [Example 8]
Efficacy % [1]: 93% | log p [2, 3]: 4.37

CON=C(C(=O)Nc1nc(CON=C(c2ccccc2)c2nnnn2C)cs1)c1ccc(Cl)cc1Cl [Example 9]
Efficacy % [1]: 95% | log p [2, 3]: 4.41

CON=C(C(=O)Nc1nc(CON=C(c2ccccc2)c2nnnn2C)cs1)c1cccc(Cl)c1Cl [Example 11]
Efficacy % [1]: 95% | log p [2, 3]: 4.27

C#CCOCC(=O)Nc1nc(CON=C(c2ccccc2)c2nnnn2C)cs1 [Example 13]
Efficacy % [1]: 85% | log p [2, 3]: 2.64

Cc1nnnn1C(=NOCc1cccc(NC(=O)OCCC2CCCCC2)n1)c1ccccc1 [Example 15]
Efficacy % [1]: 95% | log p [2, 3]: 5.19

Cc1nnnn1C(=NOCc1cccc(NC(=O)OCC2CC2)n1)c1ccccc1 [Example 17]
Efficacy % [1]: 93% | log p [2, 3]: 3.52

Cc1nnnn1C(=NOCc1cccc(NC(=O)OCCCC2CCCCC2)n1)c1ccccc1 [Example 19]
Efficacy % [1]: 95% | log p [2, 3]: 5.62

Cc1nnnn1C(=NOCc1cccc(NC(=O)OCCCC2CCCC2)n1)c1ccccc1 [Example 21]
Efficacy % [1]: 95% | log p [2, 3]: 5.25

C#CCOCC(=O)Nc1cccc(CON=C(c2ccccc2)n2nnnc2C)n1 [Example 22]
Efficacy % [1]: 70% | log p [2, 3]: 2.86

CON=C(C(=O)Nc1nc(CON=C(c2ccccc2)n2nnnc2C)cs1)c1ccc(Cl)cc1Cl [Example 23]
Efficacy % [1]: 90% | log p [2, 3]: 4.49

Cc1nnnn1C(=NOCc1csc(NC(=O)OCCC2CCCCC2)n1)c1ccccc1 [Example 24]
Efficacy % [1]: 88% | log p [2, 3]: 4.8

Cc1nnnn1C(=NOCc1csc(NC(=O)OCC2CCCCC2)n1)c1ccccc1 [Example 25]
Efficacy % [1]: 93% | log p [2, 3]: 4.41

Cc1nnnn1C(=NOCc1csc(NC(=O)OCC2CC2)n1)c1ccccc1 [Example 26]
Efficacy % [1]: 70% | log p [2, 3]: 3.27

CON=C(C(=O)Nc1nc(CON=C(c2ccccc2)n2nnnc2C)cs1)c1ccccc1Cl [Example 27]
Efficacy % [1]: 85% | log p [2, 3]: 3.92

CON=C(C(=O)Nc1nc(CON=C(c2ccccc2)n2nnnc2C)cs1)c1ccc(Cl)cc1 [Example 28]
Efficacy % [1]: 80% | log p [2, 3]: 4.32

CC(C)=NOC(C)C(=O)Nc1cccc(CO/N=C(/c2ccccc2)c2nnnn2C)n1 (stereo not drawn) [Example 32]
Efficacy % [1]: 70% | log p [2, 3]: 3.25

CC(=NOCC(=O)Nc1cccc(CON=C(c2ccccc2)c2nnnn2C)n1)c1ccccc1 [Example 33]
Efficacy % [1]: 80% | log p [2, 3]: 3.92

CC(=NOCC(=O)Nc1nc(CON=C(c2ccccc2)c2nnnn2C)cs1)C(C)(C)C [Example 34]
Efficacy % [1]: 90% | log p [2, 3]: 3.99

CC(C)=NOC(C)C(=O)Nc1nc(CO/N=C(/c2ccccc2)c2nnnn2C)cs1 (stereo not drawn) [Example 35]
Efficacy % [1]: 95% | log p [2, 3]: 3.11

CC(=NOCC(=O)Nc1nc(CON=C(c2ccccc2)c2nnnn2C)cs1)c1ccccc1 [Example 36]
Efficacy % [1]: 95% | log p [2, 3]: 3.76

CC(=NOCC(=O)Nc1nc(CON=C(c2ccccc2)n2nnnc2C)cs1)C(C)(C)C [Example 37]
Efficacy % [1]: 88% | log p [2, 3]: 4.04

CC(C)=NOC(C)C(=O)Nc1nc(CO/N=C(/c2ccccc2)n2nnnc2C)cs1 (stereo not drawn) [Example 38]
Efficacy % [1]: 88% | log p [2, 3]: 3.17

C=CCCOCC(=O)Nc1cccc(CO/N=C(/c2ccccc2)c2nnnn2C)n1 [Example 40]
Efficacy % [1]: 85% | log p [2, 3]: 3.39

C=CCCOC(C)C(=O)Nc1cccc(CO/N=C(/c2ccccc2)c2nnnn2C)n1 (stereo not drawn) [Example 41]
Efficacy % [1]: 100% | log p [2, 3]: 3.69

C=CCCOC(C)C(=O)Nc1nc(CO/N=C(/c2ccccc2)n2nnnc2C)cs1 (stereo not drawn) [Example 43]
Efficacy % [1]: 95% | log p [2, 3]: 3.53

C=CCCOCC(=O)Nc1nc(CO/N=C(/c2ccccc2)n2nnnc2C)cs1 [Example 44]
Efficacy % [1]: 93% | log p [2, 3]: 3.23

C#CCOC(C)C(=O)Nc1cccc(CO/N=C(/c2ccccc2)c2nnnn2C)n1 (stereo not drawn) [Example 50]
Efficacy % [1]: 95% | log p [2, 3]: 3.04

C#CCOC(C)C(=O)Nc1cccc(CO/N=C(/c2ccccc2)n2nnnc2C)n1 (stereo not drawn) [Example 52]
Efficacy % [1]: 93% | log p [2, 3]: 3.11

Cc1nnnn1/C(=N\OCc1csc(NC(=O)OC(C)CC2CC2)n1)c1ccccc1 (stereo not drawn) [Example 56]
Efficacy % [1]: 95% | log p [2, 3]: 3.87

Cn1nnnc1C(=NOCc1csc(NC(=O)OCC2CCCCC2)n1)c1ccccc1 [Example 61]
Efficacy % [1]: 98% | log p [2, 3]: 4.37

Cn1nnnc1C(=NOCc1cccc(NC(=O)COC2CCCCC2)n1)c1ccccc1 [Example 77]
Efficacy % [1]: 93% | log p [2, 3]: 4.15

Cc1nnnn1C(=NOCc1cccc(NC(=O)COC2CCCCC2)n1)c1ccccc1 [Example 79]
Efficacy % [1]: 90% | log p [2, 3]: 4.25

Cn1nnnc1C(=NOCc1csc(NC(=O)COC2CCC2)n1)c1ccccc1 [Example 80]
Efficacy % [1]: 90% | log p [2, 3]: 3.19

Cn1nnnc1C(=NOCc1cccc(NC(=O)COC2CCC2)n1)c1ccccc1 [Example 81]
Efficacy % [1]: 80% | log p [2, 3]: 3.46

Cc1nnnn1C(=NOCc1csc(NC(=O)COC2CCC2)n1)c1ccccc1 [Example 82]
Efficacy % [1]: 90% | log p [2, 3]: 3.25

Cc1nnnn1C(=NOCc1cccc(NC(=O)COC2CCC2)n1)c1ccccc1 [Example 83]
Efficacy % [1]: 90% | log p [2, 3]: 3.55

Cn1nnnc1C(=NOCc1cccc(NC(=O)COC2CCCC2)n1)c1ccccc1 [Example 85]
Efficacy % [1]: 95% | log p [2, 3]: 3.83

Cc1nnnn1C(=NOCc1cccc(NC(=O)COC2CCCC2)n1)c1ccccc1 [Example 87]
Efficacy % [1]: 90% | log p [2, 3]: 3.92

Cc1nnnn1C(=NOCc1cccc(NC(=O)COC2CCCCCC2)n1)c1ccccc1 [Example 88]
Efficacy % [1]: 95% | log p [2, 3]: 4.67

Cn1nnnc1C(=NOCc1csc(NC(=O)OC2CC3CCC2(C)C3(C)C)n1)c1ccccc1 (stereo not drawn) [Example 104]
Efficacy % [1]: 93%

Cn1nnnc1C(=NOCc1csc(NC(=O)OC2CC3CCC2(C)C3(C)C)n1)c1cccc(F)c1 (stereo not drawn) [Example 105]
Efficacy % [1]: 80%

Cn1nnnc1C(=NOCc1csc(NC(=O)OCCCC#C[Si](C)(C)C)n1)c1ccccc1 [compound 228]
log p ([2]; pH 2.7, 0.1% formic acid in water / acetonitrile gradient): 4.71
